Values after ≈ are worked out from the molar mass of the structure shown. Active and inactive are the calls of the source. The rule behind the calls is not given here.

Holding throughout (format): functional
Experiment [1] has as its system Candida albicans. Description: Antifungal activity against Candida albicans ATCC 10231 after 24 hr by disk diffusion method. Conditions: ATCC 10231, 24 h.
Experiment [2] has as its system Staphylococcus aureus. As to the kind of experiment: Antibacterial activity against Staphylococcus aureus ATCC 29737 at 400 ug/ml after 24 hr by cup-plate agar method. Conditions: for zone of inhibition at 400 µg/mL: ATCC 29737, 24 h, read-out: IZ.
In experiment [3] the test system is Escherichia coli. Description: Antibacterial activity against Escherichia coli ATCC 35218 after 24 hr by disk diffusion method. Conditions: ATCC 35218, 24 h.
Experiment [4] concerns Escherichia coli. As to the kind of experiment: Antibacterial activity against Escherichia coli ATCC 35218 at 400 ug/ml after 24 hr by cup-plate agar method. Conditions: for zone of inhibition at 400 µg/mL: ATCC 35218, 24 h, read-out: IZ.
In experiment [5] the test system is Candida albicans. As to the kind of experiment: Antifungal activity against Candida albicans ATCC 10231 at 400 ug/ml after 24 hr by cup-plate agar method. Particulars: for zone of inhibition at 400 µg/mL: ATCC 10231, 24 h, read-out: IZ.
Experiment [6] has as its system Staphylococcus aureus. As to the kind of experiment: Antibacterial activity against Staphylococcus aureus ATCC 29737 after 24 hr by disk diffusion method. Particulars: ATCC 29737, 24 h.

`O=C(/C=C/c1cccc(Br)c1)c1ccc(C(=O)/C=C/c2cccc(Br)c2)cc1`: the MIC against Candida albicans [1] came out at 200 µg/mL (≈ 403 µM); with Escherichia coli [3], 50 µg/mL (≈ 101 µM). In addition, the values for the zone of inhibition at 400 µg/mL in the experiment on Staphylococcus aureus [2] and in the experiment with Escherichia coli [4] were 10 mm and 30 mm, respectively. Moreover, in the experiment with Candida albicans [5], the “inhibition zone (IZ)” value was “inactive”.
For `O=C(/C=C/c1ccccc1[N+](=O)[O-])c1ccc(C(=O)/C=C/c2ccccc2[N+](=O)[O-])cc1`, the MIC with Candida albicans [1], in the experiment on Escherichia coli [3] and against Staphylococcus aureus [6] was 100 µg/mL (≈ 233 µM) each time. Further, the zone of inhibition at 400 µg/mL is 15 mm in the experiment with Staphylococcus aureus [2], 21 mm in the experiment with Escherichia coli [4] and 15 mm with Candida albicans [5].
As to `O=C(/C=C/c1ccccc1O)c1ccc(C(=O)/C=C/c2ccccc2O)cc1`, the results for the minimum inhibitory concentration (MIC) with Candida albicans [1] and against Escherichia coli [3] were 100 µg/mL (≈ 270 µM) and 50 µg/mL (≈ 135 µM), respectively. The zone of inhibition at 400 µg/mL with Staphylococcus aureus [2] was 13 mm; with Escherichia coli [4] it was 30 mm. Also, the “inhibition zone (IZ)” value in the experiment with Candida albicans [5] was “inactive”.
In the case of `O=C(/C=C/c1ccccc1Cl)c1ccc(C(=O)/C=C/c2ccccc2Cl)cc1`, the MIC against Candida albicans [1] stood at 100 µg/mL (≈ 246 µM); against Escherichia coli [3], 100 µg/mL (≈ 246 µM); against Staphylococcus aureus [6] it was 200 µg/mL (≈ 491 µM). The zone of inhibition at 400 µg/mL in the experiment with Staphylococcus aureus [2] was 10 mm; in the experiment on Escherichia coli [4], 27 mm; in the experiment on Candida albicans [5], 12 mm.
`C[C@@H]1[C@H](O)[C@@H](C)/C=C/C=C/C=C/C=C/C=C/C=C/C=C/[C@H](O[C@@H]2O[C@H](C)[C@@H](O)[C@H](N)[C@@H]2O)C[C@@H]2O[C@](O)(C[C@@H](O)C[C@@H](O)[C@H](O)CC[C@@H](O)C[C@@H](O)CC(=O)O[C@H]1C)C[C@H](O)[C@H]2C(=O)O` [AMPHOTERICIN B]: the zone of inhibition at 400 µg/mL in the experiment with Candida albicans [5] is 21 mm.
On to `O=C(/C=C/c1cccc([N+](=O)[O-])c1)c1ccc(C(=O)/C=C/c2cccc([N+](=O)[O-])c2)cc1`, for which the “inhibition zone (IZ)” value in the experiment with Staphylococcus aureus [2], in the experiment on Escherichia coli [4] and in the experiment on Candida albicans [5] was “inactive” in each case.
Regarding `O=C(/C=C/c1ccc(Cl)cc1)c1ccc(C(=O)/C=C/c2ccc(Cl)cc2)cc1`, the minimal inhibitory concentration (MIC) in the experiment on Candida albicans [1] is 200 µg/mL (≈ 491 µM); against Escherichia coli [3], 100 µg/mL (≈ 246 µM); with Staphylococcus aureus [6] it was 200 µg/mL (≈ 491 µM). Also, the results for the zone of inhibition at 400 µg/mL in the experiment with Staphylococcus aureus [2], in the experiment with Escherichia coli [4] and in the experiment with Candida albicans [5] were 10 mm, 23 mm and 12 mm, respectively.
`COc1ccc(/C=C/C(=O)c2ccc(C(=O)/C=C/c3ccc(OC)c(OC)c3)cc2)cc1OC`: the figures for the minimum inhibitory concentration (MIC) in the experiment with Candida albicans [1] and against Escherichia coli [3] were 200 µg/mL (≈ 436 µM) and 100 µg/mL (≈ 218 µM), respectively. The zone of inhibition at 400 µg/mL in the experiment on Staphylococcus aureus [2] came to 11 mm; in the experiment on Escherichia coli [4], 30 mm. For the same compound, in the experiment on Candida albicans [5], the “inhibition zone (IZ)” value is “inactive”.
With `O=C(/C=C/c1ccc([N+](=O)[O-])cc1)c1ccc(C(=O)/C=C/c2ccc([N+](=O)[O-])cc2)cc1`, the MIC against Candida albicans [1] is 200 µg/mL (≈ 467 µM); with Escherichia coli [3], 50 µg/mL (≈ 117 µM); in the experiment with Staphylococcus aureus [6], 50 µg/mL (≈ 117 µM). The zone of inhibition at 400 µg/mL in the experiment with Staphylococcus aureus [2] stood at 10 mm; in the experiment on Escherichia coli [4] it was 13 mm; in the experiment on Candida albicans [5] it was 25 mm.
As to `COc1ccc(/C=C/C(=O)c2ccc(C(=O)/C=C/c3ccc(OO)cc3)cc2)cc1`, the “inhibition zone (IZ)” value with Staphylococcus aureus [2] and in the experiment with Escherichia coli [4] was “inactive” each time. Further, in the experiment with Candida albicans [5], the zone of inhibition at 400 µg/mL stood at 22 mm. In the experiment with Staphylococcus aureus [6], this compound yielded a minimum inhibitory concentration (MIC) of 300 µg/mL (≈ 749 µM).
Regarding `O=C(/C=C/c1ccccc1)c1ccc(C(=O)/C=C/c2ccccc2)cc1`, the MIC against Candida albicans [1], against Escherichia coli [3] and against Staphylococcus aureus [6] was 200 µg/mL (≈ 591 µM) each time. The zone of inhibition at 400 µg/mL in the experiment on Staphylococcus aureus [2] amounted to 10 mm; in the experiment on Escherichia coli [4] it was 13 mm; with Candida albicans [5] it was 17 mm.
On to `COc1cccc(/C=C/C(=O)c2ccc(C(=O)/C=C/c3cccc(OC)c3)cc2)c1`, for which the “inhibition zone (IZ)” value in the experiment on Staphylococcus aureus [2], with Escherichia coli [4] and in the experiment on Candida albicans [5] was “inactive” in each case.
As for `O=C(/C=C/c1ccc(Br)cc1)c1ccc(C(=O)/C=C/c2ccc(Br)cc2)cc1`, the minimal inhibitory concentration (MIC) amounted to 200 µg/mL (≈ 403 µM) in the experiment with Candida albicans [1] and 50 µg/mL (≈ 101 µM) against Escherichia coli [3]. Besides, the figures for the zone of inhibition at 400 µg/mL in the experiment on Staphylococcus aureus [2] and in the experiment on Escherichia coli [4] were 9 mm and 30 mm, respectively. Besides, in the experiment with Candida albicans [5], the “inhibition zone (IZ)” value was “inactive”.
On to GENTAMICIN, for which the inhibition zone (IZ) came out at 23 mm with Staphylococcus aureus [2] and 24 mm in the experiment with Escherichia coli [4].
As for `COc1ccccc1/C=C/C(=O)c1ccc(C(=O)/C=C/c2ccccc2OC)cc1`, the “inhibition zone (IZ)” value with Staphylococcus aureus [2] and in the experiment with Escherichia coli [4] was “inactive” each time. The zone of inhibition at 400 µg/mL in the experiment on Candida albicans [5] came to 9 mm. Further, the MIC against Staphylococcus aureus [6] was 300 µg/mL (≈ 753 µM).
As for `O=C(/C=C/c1cccc(Cl)c1)c1ccc(C(=O)/C=C/c2cccc(Cl)c2)cc1`, the “inhibition zone (IZ)” value with Staphylococcus aureus [2] was “inactive”. Moreover, the MIC in the experiment with Escherichia coli [3] and in the experiment with Staphylococcus aureus [6] was 300 µg/mL (≈ 737 µM) throughout. In addition, the zone of inhibition at 400 µg/mL in the experiment on Escherichia coli [4] was 13 mm; in the experiment on Candida albicans [5] it was 12 mm.

Values taken from ChEMBL document CHEMBL3045415, “Synthesis, characterization and antimicrobial activities of some novel bis-chalcones” (2012).
